Laboratory results published in article PMC9669016, “First-in-human phase Ia study of the PI3Kα inhibitor CYH33 in patients with solid tumors” (Nature Communications, 2022).
Read-outs that look alike come from different tables or passages of the source.

Assays:
[1] = tested on: KYSE510 human esophageal cancer xenograft; parameters: method as in Investigator's Brochure (IB) 12; conditions: 12.5 mg/kg oral for 21 days; ref Investigator's Brochure (IB) 12; cited from earlier work
Beagle dogs [2] = tested on: Beagle dogs; parameters: method as in Investigator's Brochure (IB) 12; conditions: ref Investigator's Brochure (IB) 12; cited from earlier work
[3] = tested on: fasting blood glucose (FBG); assay: Pharmacodynamics: fasting blood glucose (FBG) change from baseline; assay type: in vivo, human; conditions: Cycle 1 Day 15 (C1D15), starting at 10 mg CYH33 and peaking at 60 mg
Source text: Since glucose metabolism is tightly regulated by PI3Kα[24], fasting blood glucose (FBG) levels were used as a PD marker.
This is a phase I clinical study (ClinicalTrials.gov identifier: NCT03544905), including a phase Ia study of oral CYH33 monotherapy in patients with advanced solid tumors, and a phase Ib study of oral CYH33 monotherapy focused on several specific tumors. Here we report the results of the phase Ia study conducted at Sun Yat-sen University Cancer Center. The phase Ia study included dose-escalation stage and dose-expansion stage. […]
Blood samples for PK evaluation were collected at: (1) during the single dose phase: on day 1 pre-dose and 0.5, 1, 2, 4, 8, 12, 24, 36, 48, and 72 h post-dose; (2) during the continuous dose phase: C1D1/Cycle 1 Day 28 pre-dose, and 0.5, 1, 2, 3, 4, 6, 8, 12, and 24 h post-dose; and C1D8/Day 15 pre-dose. Plasma concentrations of CYH33 and I27 were analyzed using a liquid chromatography-tandem mass spectrometry (LC/MS/MS) assay (Shimadzu Corporation, LC-30AD) with a lower limit of quantification (LLOQ) of 2.585 ng/mL and 1.0 ng/mL for CYH33 and I27, respectively. […]

human hepatocytes = tested on: human hepatocytes; parameters: method as in Investigator's Brochure (IB) 12; conditions: ref Investigator's Brochure (IB) 12; cited from earlier work
[4] = tested on: EC104 esophageal cancer PDX; parameters: method as in Investigator's Brochure (IB) 12; conditions: 12.5 mg/kg oral for 21 days; ref Investigator's Brochure (IB) 12; cited from earlier work
pregnant rats = tested on: pregnant rats; parameters: method as in Investigator's Brochure (IB) 12; conditions: ref Investigator's Brochure (IB) 12; cited from earlier work
SD rats [5] = tested on: SD rats; parameters: method as in Investigator's Brochure (IB) 12; conditions: long-term, ref Investigator's Brochure (IB) 12, cited from earlier work
[6] = parameters: method as in Investigator's Brochure (IB) 12; conditions: ref Investigator's Brochure (IB) 12, cited from earlier work
Beagle dogs [7] = tested on: Beagle dogs; parameters: method as in Investigator's Brochure (IB) 12; conditions: long-term, ref Investigator's Brochure (IB) 12; cited from earlier work
[8] = parameters: method as in Study Protocol CYH33-101 Table 2; conditions: in H2O; ref Study Protocol CYH33-101 Table 2; cited from earlier work
[9] = parameters: method as in Investigator's Brochure (IB) 12; conditions: dogs, ref Investigator's Brochure (IB) 12, cited from earlier work
SD rats [10] = tested on: SD rats; parameters: method as in Investigator's Brochure (IB) 12; conditions: ref Investigator's Brochure (IB) 12; cited from earlier work
[11] = parameters: method as in Investigator's Brochure (IB) 12; conditions: dogs, without concentration dependency; ref Investigator's Brochure (IB) 12; cited from earlier work
[12] = parameters: method as in Investigator's Brochure (IB) 12; conditions: rats, without concentration dependency; ref Investigator's Brochure (IB) 12; cited from earlier work

For `COC(=O)Nc1cc(C(F)(F)F)c(-c2nc(N3CCOCC3)c3cc(CN4CCN(S(C)(=O)=O)CC4)cn3n2)cn1` [CYH33, methyl (5-(6-((4-(methylsulfonyl)piperazin-1-yl)methyl)−4-morpholinopyrrolo[2,1-f][1,2,4]triazin-2-yl)−4-(trifluoromethyl)pyridin-2-yl)carbamate], the T/C ratio [1] is listed as “approximately 30%”, the “maximum tolerated dose (MTD), acute toxicity” value (Beagle dogs [2]) is listed as over 120 mg/kg and the FBG levels [3] is listed as “dose-dependent increase in FBG levels”. The “oxidative metabolites in human hepatocytes” value (human hepatocytes) was “not detected”, the T/C ratio [4] was “approximately 30%” and the “no-observed-adverse-effect level (NOAEL) for embryo-fetal development” value (pregnant rats) was 0.10 mg/kg. For the same molecule, the “highest non-severely toxic dose (HNSTD)” value (SD rats [5]; female SD rats) was 3 mg/kg, the “highest non-severely toxic dose (HNSTD)” value (SD rats [5]; male SD rats) was 8 mg/kg and the “exposure in tissues relative to plasma” value ([6]; liver, adrenal gland, digestive tract, pancreas, kidney, spleen, ovaries) was “more than 4 times”. The “concentration of parent drug at 72 h after administration relative to peak concentration” value [6] was 0.5%, the “distribution into the red blood cells” value [6] was “basically not distributed” and the “exposure in brain tissue relative to plasma” value [6] was “approximately 20%”. The “exposure in tissues, female rats relative to male rats (higher)” value [6] was 7 - 18 fold, the “highest non-severely toxic dose (HNSTD)” value (Beagle dogs [7]) was 0.2 mg/kg and the pKa [8] was 4.86 ± 0.06. For the same molecule, the absolute bioavailability ([9]; 0.05 mg/kg) was 70.9%, the “Vss, steady-state volume of distribution” value [9] was 1.86 L/kg and the “accumulation after continuous administration for 7 days” value [9] was “not significant”. For the same molecule, the elimination half-life [9] was 5.1 h, the “plasma clearance CL” value [9] was 6.75 mL/min/kg and the “MTD, acute toxicity” value (SD rats [10]) was at least 600 mg/kg. The “plasma protein binding (PPB)” value [11] was 97.1% and the “plasma protein binding (PPB)” value [12] was 97.5%.
